Where no end group is shown, it is not given here.
Legend:
[1] = system: thyroparathyroidectomized (TPTX) rats; experiment: Repeated daily administration in TPTX rats (11‐day treatment, 12‐day study); format: in vivo, rat
Method: TPTX rats were injected i.v. or s.c. with vehicle or vehicle containing a PTH peptide, or orally treated once daily with vehicle (medium‐chain triglyceride; Chugai Pharma Manufacturing, Tokyo, Japan) or vehicle containing alfacalcidol (Chugai Pharma Manufacturing) for 11 days. Blood samples were obtained from the tail or jugular vein immediately before and at times after injection. Urine samples at 0 to 8 hours or 8 to 24 hours, were collected in metabolic cages. sCa and uCa, serum inorganic phosphorus (sPi) and urinary phosphorus (uPi), and creatinine (uCre) were measured with an automatic analyzer (7180; Hitachi, Ltd, Chiyoda, Tokyo, Japan). Urinary deoxypyridinoline (uDpD) was measured using a Metra DPD EIA kit (DS Pharma Biomedical, Osaka, Japan), and the data were normalized to the uCre concentrations. Serum FGF23 was measured using FGF23 ELISA assay (Immunodiagnostik AG, Bensheim, Germany). Serum 1,25‐dihydroxyvitamin D [1,25(OH)2D3] levels were determined by a ELISA immunoassay (Immunodiagnostic System Ltd, Bolden, UK).
Figure 4 Effects of 11‐day treatment (12‐day study) with M‐PTH/PTHrP or alfacalcidol on serum calcium (sCa) in thyroparathyroidectomized (TPTX) rats. TPTX rats were treated for 11 days with daily s.c. injection of either vehicle or M‐PTH/PTHrP, or with daily oral alfacalcidol at the indicated doses, and sham‐surgery control rats were s.c. injected daily with vehicle. The levels of Ca in serum and urine were assessed. Blood samples were collected from the jugular vein at 8 hours (A) and at 24 hours (B) after the last treatment administration, and assessed for total sCa. Total urine was collected in metabolic cages over the time intervals of 0 to 8 hours (C), and 8 to 24 hours (D) and assessed for total urinary Ca. Data are means ± SEM; n = 6 or 5 (2.0 and 4.0 nmol/kg of M‐PTH/PTHrP); *p < 0.05 M‐PTH/PTHrP versus TPTX‐vehicle; #p < 0.05 TPTX vehicle versus sham.
Supplementary file JBM4-4-e10367-s001.pdf: Figure S1 PTH ligand‐induced cAMP‐signaling responses in GP‐2.3 cells Time course of the cAMP‐dependent luminescence response measured at 2‐minute intervals in the presence of each ligand at 10 nM (Ligand on‐phase) and B) Time course of the cAMP‐dependent luminescence response measured at 2‐minute intervals after washout of unbound ligand (Ligand wash‐out phase). GP‐2.3 cells preloaded with luciferin were treated with a concentration of PTH ligand at a concentration of 10 nM for 30 min, and cAMP‐dependent luminescence was measured at two‐minute intervals (ligand‐on phase). The cells were then removed from the plate reader, rinsed twice with media to remove unbound ligand, and then fresh media containing luciferin but lacking ligand was added and luminescence was assessed for additional 90 min (Ligand wash‐out phase). Data are means (± SEM) of four experiments, each performed in triplicate. Figure S2. In vivo calcemic actions of M‐PTH/PTHrP hybrid analogs in normal rats. The indicated M‐PTH/PTHrP hybrid analogs (sequences are shown in Figure 1) along with PTH(1–34) and PTHrP(1–36) controls, were administered at the indicated doses by i.v. injection, and at the indicated time points blood was collected from the tail vein and measured for ionized calcium (Ca^2+). Panels A‐C represent three separate experiments. Data are means ± SEM; n = 6 or 4 (80 nmol/kg of M‐PTH(1‐11)/PTHrP(12–36), M‐PTH(1‐14)/PTHrP(12–36), M‐PTH(1‐17)/PTHrP(18–36) and 1.25 nmol/kg of M‐PTH(1–30)/PTHrP(31–36)). *p < 0.05 versus Vehicle. Figure S3. Effects of 11 days treatment (12 days study) of M‐PTH/PTHrP on serum 1,25(OH) 2 Vitamin‐D3, urinary deoxypyridinoline (Dpd) and serum FGF23 in TPTX rats. Serum and urine samples obtained from the TPTX and sham control rats of the two‐week daily‐administration experiment shown in Figure 4 were analyzed by ELISA for the indicated markers. A) serum 1,25(OH)2Vitamin‐D3. B) urinary deoxypyridinoline (DpD)/Cre. C) serum FGF23. […]

[2] = molecular target: T1, human PTHR1 (R^0 conformation) (Homo sapiens, UniProt Q03431); experiment: Competition binding to the R^0 conformation of PTHR1
T1 construct: expressed in transfected cells; host or cells: COS-7 cells (transient transfection; membranes)
T1 sequence (Q03431 27-593): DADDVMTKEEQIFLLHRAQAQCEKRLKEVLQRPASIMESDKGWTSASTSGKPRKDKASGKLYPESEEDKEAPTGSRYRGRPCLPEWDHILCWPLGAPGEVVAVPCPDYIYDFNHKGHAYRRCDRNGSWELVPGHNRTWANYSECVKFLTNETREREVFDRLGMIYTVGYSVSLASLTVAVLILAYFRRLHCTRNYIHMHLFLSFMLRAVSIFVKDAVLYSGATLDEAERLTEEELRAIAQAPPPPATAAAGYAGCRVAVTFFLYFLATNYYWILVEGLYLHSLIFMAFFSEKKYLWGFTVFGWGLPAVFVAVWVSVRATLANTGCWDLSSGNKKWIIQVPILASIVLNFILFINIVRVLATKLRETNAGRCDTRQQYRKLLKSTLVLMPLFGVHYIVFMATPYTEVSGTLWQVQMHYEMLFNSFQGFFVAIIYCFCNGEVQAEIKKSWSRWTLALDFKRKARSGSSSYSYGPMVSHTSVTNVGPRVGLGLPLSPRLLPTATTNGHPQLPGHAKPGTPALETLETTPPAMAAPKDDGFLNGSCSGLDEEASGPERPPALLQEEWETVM

[3] = molecular target: T2, human PTHR1 (RG conformation) (Homo sapiens, UniProt Q03431); experiment: Competition binding to the RG conformation of PTHR1
T2 construct: expressed in transfected cells; host or cells: COS-7 cells (transient co-transfection; membranes)
T2 sequence (Q03431 27-593): T1 sequence (Q03431 27-593)

human PTHR1 = molecular target: T3, human PTHR1 (Homo sapiens, UniProt Q03431); experiment: GloSensor cAMP signaling assay in GP‐2.3 cells; format: cell-based
T3 construct: expressed in transfected cells
T3 sequence (Q03431 27-593): T1 sequence (Q03431 27-593)
Method: GP‐2.3 cells, an HEK‐293 cell‐ (ATCC CRL‐1573) derived cell line that stably expresses the luciferase‐based pGloSensor‐22F (GloSensor) cAMP reporter plasmid (Promega Corp., […], USA) along with the human PTHR1, were cultured in DMEM (Thermo Fisher Scientific, Waltham, MA, USA) supplemented with FBS (10%). Cells were seeded into white 96‐well plates for GloSensor cAMP assays, and used for assay 2 to 3 days after the monolayer became confluent.16 UGS‐56 cells were derived from the UMR106 rat osteoblastic cell line by stably transfecting the cells to express the GloSensor‐cAMP reporter. B64 cells are a derivative of the porcine kidney cell line, LLC‐PK1 that stably expresses the human PTHR1. COS‐7 cells (ATCC CRL‐1661) were seeded into 10‐cm dishes and transiently transfected to express the human PTHR1 with or without a high‐affinity, negative‐dominant Gαs subunit; 2 days after transfection, the cells were harvested for membrane preparations.13 All transfections were performed using the Fugene HD reagent (Promega Corp.).
Changes in cAMP levels were assessed in intact GP‐2.3 or UGS‐56 cells via the (GloSensor) cAMP reporter. The intact cells in white 96‐well plates were preloaded with luciferin in CO2‐independent culture media (Thermo Fisher) for 20 min at room temperature, then treated with a test ligand diluted in the same media and placed into a Envision plate reader (PerkinElmer, Waltham, MA, USA) for an additional 30 min, during which time cAMP‐dependent luminescence was measured at 2‐min intervals (ligand‐on phase). […] For washout responses, the cells were treated as above, and after the ligand‐on phase, the plate was removed from the plate reader, the cells were rinsed with media, then fresh media containing only luciferin was added and luminescence was measured for an additional 90 min (washout phase). EC50 values were determined using the 4‐parameter sigmoidal dose–response equation in Prism 8.0 (GraphPad Software, Inc., La Jolla, CA, USA).
The cells were then removed from the plate reader, rinsed twice with media to remove unbound ligand, and then fresh media containing luciferin but lacking ligand was added and luminescence was assessed for additional 90 min (Ligand wash‐out phase). Data are means (± SEM) of four experiments, each performed in triplicate. Figure S2. […] Panels A‐C represent three separate experiments. […] Figure S3. […] Serum and urine samples obtained from the TPTX and sham control rats of the two‐week daily‐administration experiment shown in Figure 4 were analyzed by ELISA for the indicated markers. A) serum 1,25(OH)2Vitamin‐D3. B) urinary deoxypyridinoline (DpD)/Cre. C) serum FGF23. […] Serum and urine samples obtained from the TPTX and sham control rats of the two‐week daily‐administration experiment shown in Figure 4 were analyzed for total inorganic phosphorus (Pi). […] Figure S5. […] B) The same peptides were assessed at a concentration of 3 nM for the capacity to stimulate cAMP formation in HKRK‐B64 cells (LLC‐PK1 cells stably expressing the hPTHR1, cAMP measured by RIA). […] Data in A and B are means (±SEM) of three experiments, each performed in triplicate or quadruplicate. […] D) The same analogs as in C were assessed at a 3.0 nM concentration for the capacity to stimulate cAMP formation in HKRK‐B64 cells. Data are means (±SEM) of three experiments, each performed in duplicate. […] Data are means (±SEM) of duplicate determinations of a single experiment representative of three others. Click here for additional data file.

Row | uCa excretion ([1]; daily oral 0.2 μg/kg, 0‐ to 8‐ and 8‐ to 24‐hour intervals) | IC50 [2] [nM] | IC50 [3] [nM] | Emax (human PTHR1) [%] | Compound | Serum levels of FGF23 ([1]; M‐PTH/PTHrP at 4.0 and 8.0 nmol/kg s.c., alfacalcidol at 0.2 μg/kg oral, daily, ELISA) | sCa levels ([1]; daily oral 0.2 μg/kg) | sPi levels ([1]; daily oral, especially at the 0.2 μg/kg dose)
1 | high uCa excretion levels | – | – | – | C=C1/C(=C\C=C2/CCC[C@]3(C)[C@@H]([C@H](C)CCCC(C)C)CC[C@@H]23)C[C@@H](O)C[C@@H]1O [alfacalcidol, 1α‐hydroxycholecalciferol] | significantly increased | comparable to those of the sham group | normalized sPi levels
2 | – | 1.91 ± 0.39 | 0.23 ± 0.02 | 105 ± 5 | AVAEIQLMHQRAKWLNSLRRRFFLHHLIAEIHTAEI [M‐PTH(1‐17)/PTHrP(18‐36)] | – | – | –
3 | – | 7.8 ± 2.55 | 0.67 ± 0.02 | 104 ± 4 | AVAEIQLMHQRAKWLNSMERVEFLHHLIAEIHTAEI [M‐PTH(1‐22)/PTHrP(23‐36)] | – | – | –
4 | – | 2.98 ± 0.48 | 0.21 ± 0.03 | 106 ± 4 | AVAEIQLMHQRAKWLNSMERVEWLRKKLQDIHTAEI [M‐PTH(1‐30)/PTHrP(31‐36)] | – | – | –
5 | – | 1.73 ± 0.75 | 0.13 ± 0.04 | 106 ± 5 | AVAEIQLMHQRAKWLNSMERVEWLRKLIAEIHTAEI [M‐PTH(1‐26)/PTHrP(27‐36)] | – | – | –
6 | – | 1.66 ± 0.22 | 0.13 ± 0.02 | 107 ± 5 | AVAEIQLMHQRAKWLNSMRRRFFLHHLIAEIHTAEI [M‐PTH(1‐18)/PTHrP(19‐36)] | – | – | –
7 | – | 2.14 ± 0.47 | 0.55 ± 0.15 | 103 ± 3 | AVAEIQLMHQRGKSIQDLRRRFFLHHLIAEIHTAEI [M‐PTH(1‐11)/PTHrP(12‐36)] | – | – | –

— paper PMC7340446, “Optimization of PTH/PTHrP Hybrid Peptides to Derive a Long‐Acting PTH Analog (LA‐PTH)” (JBMR Plus, 2020)
